In patent US4393225A, “AI-77 Compounds and pharmaceutically acceptable salts thereof” (Asahi Kasei Kogyo Kabushiki Kaisha, priority 1979, dated 1983):

Legend:
[1] = Stability (heat, alkali, aqueous solution) of compounds A to G; type: physicochemical
ulcer = assay: Anti-ulcer test (restraint and water immersion ulcer in rats, i.p.); type: in vivo, Male Wistar rats; settings: Rattus norvegicus, ip; 50 mg/kg i.p.; read-out: % Inhibition of Ulcer
Method in brief: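 Compound given intraperitoneally in saline to 24 h-fasted male Wistar rats about 150 g, followed after one hour by 6 h restraint with water immersion at 21 °C. Gastric lesions graded 0, 0.5, 1, 2 or 3 on microscopic inspection and converted to percent ulcer inhibition.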

[2] = Solubility of compounds A to G; type: physicochemical; settings: in water and organic solvents
edema = assay: Anti-edema test (carrageenan hindfoot edema in rats, p.o.); type: in vivo, Male Wistar rats; settings: Rattus norvegicus, po; 100 mg/kg p.o. (after 3 hours)
Description: Tables 13, 14 and 15 show the effect of these compounds to inhibit the occurrence of ulcer and edema. The anti-ulcer and anti-edema activity of the compounds was evaluated in efficacy tests described below. The first two symbols that appear in each of the compound names in Tables 13 and 15 represent the compounds synthesized in the methods (1) through (29); for example, IIIa-1 of a compound IIIa-1-1 represent the compound (IIIa-1).
Male Wistar rats weighing about 150 g on average were starved overnight prior to the test. They were than orally administered 100 mg/kg of the test compound. One hour later, the pad of a hindfoot of the animal was injected with 1 mg of carrageenan. The volume of the foot was measured both before the injection of carrageenan and three hours after the injection. The percent edema inhibition of the test compound was calculated from the ratio of the increase in the volume of the affected foot of the test animals to the increase in the volume of the affected foot of the controls.

SMILES	stability to heat and/or alkali [1]	inhibition in vivo at 50 mg/kg (ulcer)	solubility [2]	stability in aqueous solution ([1]; aqueous solution)	inhibition in vivo at 100 mg/kg (edema)
CC(C)CC(NC(=N)C(O)C(O)C(N)CC(=O)O)C1Cc2cccc(O)c2C(=O)O1 (stereo not shown) [A]	very labile to heat and alkali	100%	freely soluble in water, methanol, dimethylformamide, and dimethyl sulfoxide, sparingly soluble in a lower alcohol of C2 to C3 and dioxane, and substantially insoluble in ethyl acetate, chloroform, ether, hexane and benzene	–	–
CC(C)CC(NC(=O)C(O)C(O)C(N)CC(=O)O)C1Cc2cccc(O)c2C(=O)O1 (stereo not shown) [B]	labile to alkali in which the hydrolysis of lactone proceeds gradually even at room temperature	100%	freely soluble in water, methanol, dimethylformamide and dimethyl sulfoxide, sparingly soluble in other lower alcohols, dioxane and tetrahydrofuran, and substantially insoluble in ethyl acetate, chloroform, ether, hexane and benzene	–	–
CC(=O)NC1CC(=O)OC1C(O)C(=O)NC(CC(C)C)C1Cc2cccc(O)c2C(=O)O1 (stereo not shown) [C]	as labile to alkali is AI-77-B	66%	freely soluble in lower alcohols, dimethylformamide, dimethyl sulfoxide and dioxane, sparingly soluble in chloroform and ethyl acetate, and substanitally insoluble in water, ether, hexane and benzene	–	–
CCC(=O)NC1CC(=O)OC1C(O)C(=O)NC(CC(C)C)C1Cc2cccc(O)c2C(=O)O1 (stereo not shown) [D]	as labile to alkali as AI-77-B	66%	soluble in lower alcohol, dimethylformamide, dimethyl sulfoxide, dioxane, chloroform, and ethyl acetate, and substantially insoluble in water, ether, hexane and benzene	–	–
CC(C)CC(NC(=O)C(O)C1C=CC(=O)O1)C1Cc2cccc(O)c2C(=O)O1 (stereo not shown) [F]	as labile to alkali as AI-77-B	44%	freely soluble in ethyl acetate, chloroform, dimethylformamide and dimethyl sulfoxide, sparingly soluble in lower alcohols and dioxane, and substantially insoluble in water, hexane and benzene	–	–
CC(C)CC(NC(=O)C(O)C(O)C(N)CC(=O)O)C(O)Cc1cccc(O)c1C(=O)O (stereo not shown) [G]	–	33%	freely soluble in water and slightly soluble in organic solvents	relatively stable in aqueous solution	–
CCNC1CC(=O)OC1C(O)C(=O)NC(CC(C)C)C1Cc2cccc(O)c2C(=O)O1 (stereo not shown) [IIIa-18-1]	–	100%	–	–	38%
CCCNC1CC(=O)OC1C(O)C(=O)NC(CC(C)C)C1Cc2cccc(O)c2C(=O)O1 (stereo not shown) [IIIa-18-2]	–	100%	–	–	38%
CCCCNC1CC(=O)OC1C(O)C(=O)NC(CC(C)C)C1Cc2cccc(O)c2C(=O)O1 (stereo not shown) [IIIa-18-3]	–	100%	–	–	42%
CC(C)CNC1CC(=O)OC1C(O)C(=O)NC(CC(C)C)C1Cc2cccc(O)c2C(=O)O1 (stereo not shown) [IIIa-18-4]	–	94%	–	–	47%
CC(C)CCNC1CC(=O)OC1C(O)C(=O)NC(CC(C)C)C1Cc2cccc(O)c2C(=O)O1 (stereo not shown) [IIIa-18-5]	–	100%	–	–	47%
CCCCCNC1CC(=O)OC1C(O)C(=O)NC(CC(C)C)C1Cc2cccc(O)c2C(=O)O1 (stereo not shown) [IIIa-18-6]	–	94%	–	–	50%
CCCCCCNC1CC(=O)OC1C(O)C(=O)NC(CC(C)C)C1Cc2cccc(O)c2C(=O)O1 (stereo not shown) [IIIa-18-7]	–	100%	–	–	51%
CCCCCCCNC1CC(=O)OC1C(O)C(=O)NC(CC(C)C)C1Cc2cccc(O)c2C(=O)O1 (stereo not shown) [IIIa-18-8]	–	94%	–	–	50%
CCCCCCCCNC1CC(=O)OC1C(O)C(=O)NC(CC(C)C)C1Cc2cccc(O)c2C(=O)O1 (stereo not shown) [IIIa-18-9]	–	94%	–	–	43%
CCCCCCCCCCCCNC1CC(=O)OC1C(O)C(=O)NC(CC(C)C)C1Cc2cccc(O)c2C(=O)O1 (stereo not shown) [IIIa-18-10]	–	94%	–	–	43%
CCCCCCCCCCCCCCCCCCNC1CC(=O)OC1C(O)C(=O)NC(CC(C)C)C1Cc2cccc(O)c2C(=O)O1 (stereo not shown) [IIIa-18-11]	–	83%	–	–	35%
CCNC1CC(=O)OC1C(O)C(=O)NC(CC(C)C)C1Cc2cccc(OCC)c2C(=O)O1 (stereo not shown) [IIIa-22-1]	–	94%	–	–	37%
CCOc1cccc2c1C(=O)OC(C(CC(C)C)NC(=O)C(O)C1OC(=O)CC1NCCC(C)C)C2 (stereo not shown) [IIIa-22-2]	–	94%	–	–	35%

SMILES	stability to heat and/or alkali [1]	inhibition in vivo at 50 mg/kg (ulcer)	solubility [2]	stability in aqueous solution ([1]; aqueous solution)	inhibition in vivo at 100 mg/kg (edema)
CCCCOc1cccc2c1C(=O)OC(C(CC(C)C)NC(=O)C(O)C1OC(=O)CC1NCC)C2 (stereo not shown) [IIIa-22-3]	–	94%	–	–	38%
CCNC1CC(=O)OC1C(O)C(=O)NC(CC(C)C)C1Cc2cccc(OC)c2C(=O)O1 (stereo not shown) [IIIa-22-5]	–	94%	–	–	37%
CCCCNC1CC(=O)OC1C(O)C(=O)NC(CC(C)C)C1Cc2cccc(OC)c2C(=O)O1 (stereo not shown) [IIIa-22-74]	–	100%	–	–	45%
CCCCNC1CC(=O)OC1C(O)C(=O)NC(CC(C)C)C1Cc2cccc(OCC)c2C(=O)O1 (stereo not shown) [IIIa-22-75]	–	100%	–	–	48%
CNC1CC(=O)OC1C(O)C(=O)NC(CC(C)C)C1Cc2cccc(O)c2C(=O)O1 (stereo not shown) [IIIa-27-1]	–	100%	–	–	38%
CCCCN=C(NC(CC(C)C)C1Cc2cccc(O)c2C(=O)O1)C(O)C(O)C(CC(=O)O)NCCCC (stereo not shown) [Vb-10-3]	–	89%	–	–	–
CCNC(CC(=O)O)C(O)C(OC(C)=O)C(=N)NC(CC(C)C)C1Cc2cccc(O)c2C(=O)O1 (stereo not shown) [Vb-11-1]	–	78%	–	–	–
CC(=O)OC(C(=N)NC(CC(C)C)C1Cc2cccc(O)c2C(=O)O1)C(O)C(CC(=O)O)NCCC(C)C (stereo not shown) [Vb-11-2]	–	66%	–	–	–
CCCCNC(CC(=O)O)C(O)C(OC(=O)CCC)C(=N)NC(CC(C)C)C1Cc2cccc(O)c2C(=O)O1 (stereo not shown) [Vb-11-3]	–	72%	–	–	–
CCNC(CC(=O)O)C(O)C(OC(=O)CC)C(=N)NC(CC(C)C)C1Cc2cccc(OC(=O)C(C)C)c2C(=O)O1 (stereo not shown) [Vb-12-1]	–	56%	–	–	–
CC(=O)Oc1cccc2c1C(=O)OC(C(CC(C)C)NC(=N)C(OC(C)=O)C(O)C(CC(=O)O)NCC1CCCO1)C2 (stereo not shown) [Vb-12-2]	–	56%	–	–	–
CC(=O)Oc1cccc2c1C(=O)OC(C(CC(C)C)NC(=N)C(OC(C)=O)C(O)C(CC(=O)O)NCc1ccc(C)cc1)C2 (stereo not shown) [Vb-12-3]	–	44%	–	–	–
CCNC(CC(=O)O)C(O)C(O)C(=N)NC(CC(C)C)C1Cc2cccc(OC(C)=O)c2C(=O)O1 (stereo not shown) [Vb-13-1]	–	78%	–	–	–
CCNC(CC(=O)O)C(O)C(O)C(=N)NC(CC(C)C)C1Cc2cccc(OC)c2C(=O)O1 (stereo not shown) [Vb-14-1]	–	89%	–	–	–
CNC(CC(=O)O)C(O)C(O)C(=N)NC(CC(C)C)C1Cc2cccc(O)c2C(=O)O1 (stereo not shown) [Vb-19-1]	–	100%	–	–	–
CCOc1cccc2c1C(=O)OC(C(CC(C)C)NC(=N)C(O)C(O)C(CC(=O)O)NC)C2 (stereo not shown) [Vb-23-1]	–	89%	–	–	–
CNC(CC(=O)O)C(O)C(OC)C(=N)NC(CC(C)C)C1Cc2cccc(OC(C)=O)c2C(=O)O1 (stereo not shown) [Vb-27-1]	–	66%	–	–	–
COC(C(=N)NC(CC(C)C)C1Cc2cccc(OC(C)=O)c2C(=O)O1)C(O)C(CC(=O)O)NC(C)C (stereo not shown) [Vb-27-2]	–	66%	–	–	–
